Data taken from ChEMBL document CHEMBL4732179, “Design, synthesis, and bioassay of 4-thiazolinone derivatives as influenza neuraminidase inhibitors” (Eur J Med Chem, 2021).

Legend:
[1] = test system: Influenza A virus (A/Puerto Rico/8/1934(H1N1)); test: Inhibition of Influenza A virus A/Puerto Rico/8/1934(H1N1) neuraminidase at 40 ug/ml using MUNANA as substrate measured after 60 mins by fluorescence assay relative to control; conditions: dose 40.0 µg/ml
[2] = Inhibition of Influenza A virus A/Puerto Rico/8/1934(H1N1) neuraminidase using MUNANA as substrate measured after 60 mins by fluorescence assay

| Structure (SMILES) | inhibition [1] | IC50 [2] |
| --- | --- | --- |
| CCOC(=O)c1sc(/N=C2\NC(=O)/C(=C/c3ccc(C(=O)O)cc3)S2)nc1C | 79.1% | 36.5 µM |
| CCOC(=O)Cc1csc(/N=C2\NC(=O)/C(=C/c3ccc(O)c(OC)c3)S2)n1 | 86.2% | 28 µM |
| COc1cc(/C=C2\S/C(=N/c3nc(C(C)C)c(C(C)=O)s3)NC2=O)ccc1O | 97.9% | 23 µM |
| COC(=O)c1sc(/N=C2\NC(=O)CS2)nc1C | 73.9% | 53.4 µM |
| CCOC(=O)c1sc(/N=C2\NC(=O)C[Se]2)nc1C | 17.9% | – |
| CC(C)(C)c1nc(/N=C2\NC(=O)CS2)sc1-n1cncn1 | 18.8% | – |
| CCOC(=O)c1sc(/N=C2\NC(=O)/C(=C/c3cccc(N)c3)S2)nc1C | 77.4% | 31.2 µM |
| CC(C)(C)c1nc(/N=C2\NC(=O)/C(=C/c3ccccc3O)S2)sc1[N+](=O)[O-] | 83.2% | 35.4 µM |
| CCOC(=O)Cc1csc(/N=C2\NC(=O)/C(=C/c3cccc(N)c3)S2)n1 | 86.4% | 35.8 µM |
| CC(=O)c1sc(/N=C2\NC(=O)/C(=C/c3ccc(C(=O)O)cc3)S2)nc1C | 89.1% | 31.8 µM |
| COc1cccc(/C=C2\S/C(=N/c3nc(C(C)C)c(C(C)=O)s3)NC2=O)c1O | 98.5% | 28.9 µM |
| CC(C)(C)c1csc(/N=C2\NC(=O)CS2)n1 | 38% | – |
| CCOC(=O)c1sc(NC(=N)N)nc1C | -1.32% | – |
| CCOC(=O)Cc1nc(/N=C2\NC(=O)CS2)sc1C | 43.8% | – |
| CCOC(=O)c1sc(/N=C2\NC(=O)CS2)nc1C(F)(F)F | 37% | – |
| COc1cc(/C=C/C(=O)O)ccc1O [FERULATE] | – | 140 µM |
| CC(C)(C)c1nc(/N=C2\NC(=O)/C(=C/c3cccc(F)c3)S2)sc1[N+](=O)[O-] | 62.8% | 32.1 µM |
| CC(=O)Nc1ccc(/C=C2\S/C(=N/c3nc(C(C)(C)C)c([N+](=O)[O-])s3)NC2=O)cc1 | 56.7% | 75.8 µM |
| CCOC(=O)c1sc(/N=C2\NC(=O)/C(=C/c3cccc(Cl)c3)S2)nc1C | 52% | 78.7 µM |
| CCCc1nc(/N=C2\NC(=O)CS2)sc1C(=O)OC | 37% | – |
| COC(=O)c1sc(/N=C2\NC(=O)/C(=C/c3ccc(O)c(OC)c3)S2)nc1C | 88.2% | 30.4 µM |
| CCCCC1S/C(=N/c2nc(C)c(C(=O)OCC)s2)NC1=O (configuration not stated) | 52.1% | 65 µM |
| CC(C)(C)c1nc(/N=C2\NC(=O)CS2)sc1Br | 53.4% | 104 µM |
| CCOC(=O)Cc1nc(/N=C2\NC(=O)/C(=C/c3ccc(O)c(OC)c3)S2)sc1C | 95.9% | 20.3 µM |

| Structure (SMILES) | inhibition [1] | IC50 [2] |
| --- | --- | --- |
| CC(C)(C)c1nc(/N=C2\NC(=O)/C(=C/c3ccc([N+](=O)[O-])cc3)S2)sc1[N+](=O)[O-] | 46.1% | – |
| CC(=O)c1sc(/N=C2\NC(=O)CS2)nc1C | 79% | 48.7 µM |
| CCOC(=O)c1sc(/N=C2\NC(=O)/C(=C/c3cccc(O)c3)S2)nc1C | 79.5% | 43.6 µM |
| CCOC(=O)c1sc(/N=C2\NC(=O)/C(=C/c3ccc(C(=O)OC)cc3)S2)nc1C | 50.1% | 94 µM |
| CC(C)(C)c1nc(/N=C2\NC(=O)CS2)sc1[N+](=O)[O-] | 77.8% | 41.6 µM |
| CCOC(=O)Cc1csc(/N=C2\NC(=O)/C(=C/c3cccc(OC)c3O)S2)n1 | 93.8% | 33.9 µM |
| CCOC(=O)c1sc(NC(=S)NC(=O)/C=C/c2ccccc2)nc1C | 23.6% | – |
| CCOC(=O)c1sc(/N=C2\NC(=O)/C(=C/c3cccc([N+](=O)[O-])c3)S2)nc1C | 43.5% | – |
| CCOC(=O)c1sc(/N=C2\NC(=O)/C(=C/c3cccc(OC)c3O)S2)nc1C | 91.2% | 19.2 µM |
| CC(C)(C)c1nc(/N=C2\NC(=O)CS2)sc1-n1ccnc1 | 36.8% | – |
| CCOC(=O)c1sc(/N=C2\NC(=O)CS2)nc1C | 78.4% | 58.8 µM |
| CCOC(=O)c1sc(/N=C2\NC(=O)C(C)S2)nc1C (configuration not stated) | 19.6% | – |
| COc1cccc(/C=C2\S/C(=N/c3nc(C(C)(C)C)c([N+](=O)[O-])s3)NC2=O)c1 | 70.9% | 44.2 µM |
| CC(=O)c1sc(/N=C2\NC(=O)/C(=C/c3ccc4c(c3)OCO4)S2)nc1C | 88.8% | 42.3 µM |
| CC(C)(C)c1nc(/N=C2\NC(=O)/C(=C/c3ccc(O)cc3)S2)sc1[N+](=O)[O-] | 78.3% | 38.8 µM |
| CC(C)(C)c1nc(/N=C2\NC(=O)/C(=C/c3cccc([N+](=O)[O-])c3)S2)sc1[N+](=O)[O-] | 52.6% | 48.2 µM |
| CC(=O)c1sc(/N=C2\NC(=O)/C(=C/c3ccc(O)cc3)S2)nc1C | 106% | 20.5 µM |
| CC(=O)c1sc(/N=C2\NC(=O)/C(=C/c3cccc([N+](=O)[O-])c3)S2)nc1C | 80.1% | 70.5 µM |
| CC(=O)c1sc(/N=C2\NC(=O)/C(=C/c3cccc(N)c3)S2)nc1C | 24.3% | – |
| COC(=O)c1sc(/N=C2\NC(=O)CS2)nc1C(C)C | 68% | 33.6 µM |
| CCOC(=O)c1sc(NC(=S)NC(=O)/C=C/c2ccc(O)c(OC)c2)nc1C | 80.7% | 44 µM |
| CCOC(=O)c1sc(/N=C2\NC(=O)/C(=C/c3ccc(NC(C)=O)cc3)S2)nc1C | 77.8% | 44.1 µM |
| Cc1nc(/N=C2\NC(=O)CS2)sc1C(=O)OC(C)(C)C | 74.4% | 66 µM |
| CC(=O)c1sc(/N=C2\NC(=O)/C(=C/c3ccc(O)c(O)c3)S2)nc1C | 95.8% | 25.3 µM |

| Structure (SMILES) | inhibition [1] | IC50 [2] |
| --- | --- | --- |
| CCOC(=O)c1sc(/N=C2\NC(=O)/C(=C/c3cccc(C)c3)S2)nc1C | 35.4% | – |
| CCOC(=O)Cc1csc(/N=C2\NC(=O)/C(=C/c3ccc(C(=O)O)cc3)S2)n1 | 89.6% | 34.7 µM |
| Cc1nc(/N=C2\NC(=O)CS2)sc1C(=O)O | 63.9% | 97 µM |
| CCOC(=O)c1sc(/N=C2\NC(=O)/C(=C/c3ccc(O)cc3O)S2)nc1C | 75.2% | 28.3 µM |
| COc1cccc(/C=C2\S/C(=N/c3nc(C(C)(C)C)c([N+](=O)[O-])s3)NC2=O)c1O | 57.3% | 55 µM |
| COc1cc(/C=C2\S/C(=N/c3nc(C(C)(C)C)c([N+](=O)[O-])s3)NC2=O)ccc1O | 77.1% | 35.2 µM |
| CCOC(=O)c1sc(/N=C2\NC(=O)/C(=C/c3cc([N+](=O)[O-])cc([N+](=O)[O-])c3O)S2)nc1C | 58.5% | 39.9 µM |
| CCOC(=O)c1sc(/N=C2\NC(=O)/C(=C/c3ccccc3)S2)nc1C | 72.4% | 64.2 µM |
| CC(C)(C)c1nc(/N=C2\NC(=O)/C(=C/c3cccc(Cl)c3)S2)sc1[N+](=O)[O-] | 45.9% | – |
| CCOC(=O)Cc1csc(/N=C2\NC(=O)/C(=C/c3ccc(O)cc3)S2)n1 | 93.9% | 27.7 µM |
| CCOC(=O)c1sc(/N=C2\NC(=O)/C(=C/c3ccc4c(c3)OCO4)S2)nc1C | 45% | – |
| CCOC(=O)Cc1csc(/N=C2\NC(=O)/C(=C/c3cccc([N+](=O)[O-])c3)S2)n1 | 51.2% | 46 µM |
| CCOC(=O)Cc1csc(/N=C2\NC(=O)/C(=C/c3ccc(OC)c(O)c3)S2)n1 | 82.6% | 28.8 µM |
| CCOC(=O)c1sc(/N=C2\NC(=O)C(c3ccccc3)S2)nc1C (configuration not stated) | 52.8% | 55.4 µM |
| CCOC(=O)c1sc(/N=C2\NC(=O)/C(=C/c3ccc(O)c(O)c3)S2)nc1C | 91.3% | 27.1 µM |
| CCOC(=O)Cc1csc(/N=C2\NC(=O)CS2)n1 | 26.4% | – |
| CCOC(=O)c1sc(/N=C2\NC(=O)/C(=C/c3cccc(OC)c3)S2)nc1C | 59% | 73.1 µM |
| CCOC(=O)c1sc(/N=C2\NC(=O)/C(=C/c3ccccc3C(=O)O)S2)nc1C | 47% | – |
| CC(C)(C)c1nc(/N=C2\NC(=O)/C(=C/c3ccccc3C(=O)O)S2)sc1[N+](=O)[O-] | 79.3% | 33 µM |
| CCOC(=O)c1oc(/N=C2\NC(=O)CS2)nc1C | 34.8% | – |
| CCOC(=O)c1sc(/N=C2\NC(=O)/C(=C/c3cccc(F)c3)S2)nc1C | 54.5% | 64.4 µM |
| COc1cc(/C=C2\S/C(=N/c3nc(C)c(C(C)=O)s3)NC2=O)ccc1O | 100% | 26.1 µM |
| CCOC(=O)c1sc(/N=C2\NC(=O)/C(=C/c3ccccc3O)S2)nc1C | 91.3% | 28.8 µM |
